Broadly, the ED50 is the dose at which the effect has come halfway, by size or by number of responders.

Results on 14 molecules are retold here after patent US8450527B2, “Amine derivative compounds for treating ophthalmic diseases and disorders” (Acucela Inc., priority 2007, dated 2013).

The test has as its target T1, isomerase (Mus musculus, UniProt Q91ZQ5).
T1 construct: The recovery of 11-cis-retinal after bleaching can be used to estimate the activity of isomerase in vivo; from tissue; host or cells: eye (RPE) of living CD-1 albino male mice
T1 sequence (Q91ZQ5 1-533): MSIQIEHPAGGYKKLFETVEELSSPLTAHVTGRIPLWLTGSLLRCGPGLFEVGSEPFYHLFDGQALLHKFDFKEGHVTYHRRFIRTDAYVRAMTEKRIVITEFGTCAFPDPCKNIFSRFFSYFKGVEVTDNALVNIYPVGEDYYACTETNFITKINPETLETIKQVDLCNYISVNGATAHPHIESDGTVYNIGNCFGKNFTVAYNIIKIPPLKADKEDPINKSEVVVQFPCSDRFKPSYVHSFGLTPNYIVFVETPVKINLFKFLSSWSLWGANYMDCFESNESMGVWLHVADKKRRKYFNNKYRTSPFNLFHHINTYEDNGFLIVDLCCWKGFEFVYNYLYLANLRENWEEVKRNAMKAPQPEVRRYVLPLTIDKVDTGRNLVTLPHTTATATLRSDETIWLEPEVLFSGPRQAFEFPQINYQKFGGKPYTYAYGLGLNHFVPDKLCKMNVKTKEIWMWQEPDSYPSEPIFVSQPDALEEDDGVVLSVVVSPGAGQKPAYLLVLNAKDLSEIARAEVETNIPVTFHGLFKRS
The test can be described thus: In vivo murine isomerase assay (recovery of 11-cis-retinal after photobleaching). Details: species or system CD-1 (albino) male mice. As to conditions: for % Inhibition 1 mg/kg 4 h / % Inhibition 1 mg/kg 24 h / % Inhibition 5 mg/kg 4 h / % Inhibition 5 mg/kg 24 h: CD1 male mice; for % Inhibition 1 mg/kg 4 h / % Inhibition 1 mg/kg 24 h: single oral dose 1 mg/kg; for % Inhibition 1 mg/kg 4 h / % Inhibition 5 mg/kg 4 h: photobleaching 4 h post dosing; for % Inhibition 1 mg/kg 24 h / % Inhibition 5 mg/kg 24 h: photobleaching 24 h post dosing; for % Inhibition 5 mg/kg 4 h / % Inhibition 5 mg/kg 24 h: single oral dose 5 mg/kg; for ED50: mouse, po, read-out: ED50 (dose of compound that gives 50% inhibition of 11-cis retinal (oxime) recovery), CD-1 male mice, oral gavage, photobleached 4 hours after dosing. The procedure:
The capability of amine derivative compounds to inhibit isomerase was determined by an in vivo murine isomerase assay. Brief exposure of the eye to intense light (“photobleaching” of the visual pigment or simply “bleaching”) is known to photo-isomerize almost all 11-cis-retinal in the retina. The recovery of 11-cis-retinal after bleaching can be used to estimate the activity of isomerase in vivo.
Delayed recovery, as represented by lower 11-cis-retinal oxime levels, indicates inhibition of isomerization reaction. Procedures were performed essentially as described by Golczak et al., Proc. Natl. Acad. Sci. USA 102:8162-67 (2005). See also Deigner et al., Science, 244: 968-71 (1989); Gollapalli et al., Biochim Biophys Acta. 1651: 93-101 (2003); Parish, et al., Proc. Natl. Acad. Sci. USA, 14609-13 (1998); Radu, et al., Proc Natl Acad Sci USA 101: 5928-33 (2004).
[…] Mice were orally gavaged with the several of the amine derivative compounds described herein. After 1-48 hours in the dark, the mice were exposed to photobleaching of 5,000 lux of white light for 10 minutes. The mice were allowed to recover 2 hours in the dark. The animals were then sacrificed by carbon dioxide inhalation. Retinoids were extracted from the eye and the regeneration of 11-cis-retinal was assessed at various time intervals.
All steps were performed in darkness with minimal redlight illumination (low light darkroom lights and redfiltered flashlights for spot illumination as needed) (see, e.g., Maeda et al., J. Neurochem 85:944-956, 2003; Van Hooser et al., J Biol Chem 277:19173-82, 2002). After the mice were sacrificed, the eyes were immediately removed and placed in liquid nitrogen for storage.
The eyes were placed in 500 μL of bis-tris propane buffer (10 mM, pH ˜7.3) and 20 μL of 0.8M hydroxylamine (pH˜7.3). The eyes were cut up into small pieces with small iris scissors and then thoroughly homogenized at 30000 rpm with a mechanical homogenizer (Polytron PT 1300 D) in the tube until no visible tissue remained. 500 μL of methanol and 500 μL of heptane were added to each tube. The tubes were attached to a vortexer so that the contents were mixed thoroughly for 15 minutes in room temperature. The organic phase was separated from the aqueous phase by centrifugation for 10 min at 13K rpm, 4° C. 240 μL of the solution from the top layer (organic phase) was removed and transferred to clean 300 μl glass inserts in HPLC vials using glass pipette and the vials were crimped shut tightly.
The samples were analyzed on an Agilent 1100 HPLC system with normal phase column: SILICA (Beckman Coutlier, dp 5 μm, […]). The running method has a flow rate of 1.5 ml/min; solvent components are 15% solvent 1 (1% isopropanol in ethyl acetate), and 85% solvent 2 (100% hexanes). Loading volume for each sample is 100 μl; detection wavelength is 360 nm. The area under the curve for 11-cis retinal oxime was calculated by Agilent Chemstation software and was recorded manually. Data processing was performed using Prizm software.
Positive control mice (no compound administered) were sacrificed fully dark-adapted and the eye retinoids analyzed. Light (bleached) control mice (no compound administered) were sacrificed and retinoids isolated and analyzed immediately after light treatment. The animals were orally gavaged with 1 mg/kg compound, then “photo-bleached” (5000 Lux white light for 10 minutes) at 4, 24 and 48 hours after dosing, and returned to darkness to allow recovery of the 11-cis-retinal content of the eyes. Mice were sacrificed 2 hours after bleaching, eyes were enucleated, and retinoid content was analyzed by HPLC.
A dose response in vivo isomerase inhibition study was performed with several of the amine derivative compounds described herein. Six-week old dark-adapted CD-1 (albino) male mice were orally gavaged with 0.03, 0.1, 0.3, 1 and 3 mg/kg of compound in sterile water as solution, and photobleached 4 hours after dosing. […]

Regarding `CCCC(O)(CCC)CCc1cccc(CCCN)c1` [Example 3, 4-(3-(3-aminopropyl)phenethyl)heptan-4-ol], the “% Inhibition 1 mg/kg 4 h” value is listed as 36%, the “% Inhibition 1 mg/kg 24 h” value turned out to be 13%, the “% Inhibition 5 mg/kg 4 h” value stood at 95% and the “% Inhibition 5 mg/kg 24 h” value stood at 0%. Besides, the ED50 (estimated) was 2 mg/kg.

As for `NCCCc1cccc(CCC2(O)CCCCC2)c1` [Example 7, 1-(3-(3-aminopropyl)phenethyl)cyclohexanol], the “% Inhibition 1 mg/kg 4 h” value came out at 23% and the “% Inhibition 1 mg/kg 24 h” value turned out to be 12%.

Take `CCCC(O)(CCC)CCc1cccc(OCCN)c1` [Example 9, 4-(3-(2-aminoethoxy)phenethyl)heptan-4-ol]: the “% Inhibition 1 mg/kg 4 h” value came out at 12% and the “% Inhibition 1 mg/kg 24 h” value was found to be 6%.

`NCCOc1cccc(CCC2(O)CCCCCC2)c1` [Example 10, 1-(3-(2-aminoethoxy)phenethyl)cycloheptanol]: the “% Inhibition 1 mg/kg 4 h” value is on record as 9% and the “% Inhibition 1 mg/kg 24 h” value is recorded as 1%.

Regarding `NCCOc1cccc(CCC2(O)CCSCC2)c1` [Example 11, 4-(3-(2-aminoethoxy)phenethyl)tetrahydro-2H-thiopyran-4-ol], the “% Inhibition 1 mg/kg 4 h” value is given as 0% and the “% Inhibition 1 mg/kg 24 h” value was 0%.

As to `NCCOc1cccc(CCC2(O)CCCCC2)c1` [Example 12, 1-(3-(2-aminoethoxy)phenethyl)cyclohexanol], the “% Inhibition 1 mg/kg 4 h” value is 27% and the “% Inhibition 1 mg/kg 24 h” value worked out at 12%.

Turning to `NCCC(O)c1cccc(CCC2(O)CCCCC2)c1` (stereo not drawn) [Example 15, 1-(3-(3-amino-1-hydroxypropyl)phenethyl)cyclohexanol], the ED50 (estimated) is 2 mg/kg.

As to `NCCC(O)c1cccc(CCC2(O)CCCCCC2)c1` (stereo not drawn) [Example 16, 1-(3-(3-amino-1-hydroxypropyl)phenethyl)cycloheptanol], the “% Inhibition 1 mg/kg 4 h” value came out at 6% and the “% Inhibition 1 mg/kg 24 h” value is given as 0%.

Turning to `NCCC(O)c1cccc(CCC2CCCC2)c1` (stereo not drawn) [Example 17, 3-amino-1-(3-(2-cyclopentylethyl)phenyl)propan-1-ol], the “% Inhibition 1 mg/kg 4 h” value is on record as 84% and the “% Inhibition 1 mg/kg 24 h” value was 0%.

As for `CCCC(O)(CCC)CCc1cccc(C(O)CCN)c1` (stereo not drawn) [Example 19, 4-(3-(3-amino-1-hydroxypropyl)phenethyl)heptan-4-ol], the “Inhibition of recovery of 11-cis retinal (oxime), dose dependence” value (0.03-3 mg/kg oral, 4 hours post dosing) is recorded as “dose related”. Further, the “ED50 (dose of compound that gives 50% inhibition of 11-cis retinal (oxime) recovery)” value (CD-1 male mice, oral gavage, photobleached 4 hours after dosing, estimated) is reported as 0.65 mg/kg. For the setting “estimated”, the ED50 is 0.651 mg/kg.

With `NCCCc1cccc(CCC2(O)CCCCCC2)c1` [Example 20, 1-(3-(3-aminopropyl)phenethyl)cycloheptanol], the “% Inhibition 1 mg/kg 4 h” value amounted to 0% and the “% Inhibition 1 mg/kg 24 h” value was 2%.

In the case of `CCCCCc1cccc(CCCN)c1` [Example 27, 3-(3-pentylphenyl)propan-1-amine], the “% Inhibition 1 mg/kg 4 h” value turned out to be 6% and the “% Inhibition 1 mg/kg 24 h” value amounted to 29%.

On to `CC(C)(C)CCc1cccc(CCCN)c1` [Example 29, 3-(3-(3,3-dimethylbutyl)phenyl)propan-1-amine], for which the “% Inhibition 1 mg/kg 4 h” value came to 0%, the “% Inhibition 1 mg/kg 24 h” value was determined as 0%, the “% Inhibition 5 mg/kg 4 h” value is reported as 62% and the “% Inhibition 5 mg/kg 24 h” value is given as 0%. Besides, the ED50 (estimated) is 4 mg/kg.

`NCCCc1cccc(CCCCc2ccccc2)c1` [Example 35, 3-(3-(4-phenylbutyl)phenyl)propan-1-amine]: the “% Inhibition 1 mg/kg 4 h” value was found to be 0%.
